Source: PubChem BioAssay (NCI)
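All cell lines were grown in 96-well plates and treated with compound for 48 hours. At the GI50, growth is halved. TGI: total growth inhibition.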

Tests used:
Assay in all cases: inhibition of tumour cell growth, NCI panel, 48 h
SK-OV-3 ovarian = tested on: SK-OV-3 ovarian
TK-10 renal = tested on: TK-10 renal
NCI/ADR-RES ovarian = tested on: NCI/ADR-RES ovarian
NCI-H226 lung = tested on: NCI-H226 lung
HCC-2998 colon = tested on: HCC-2998 colon
NCI-H23 lung = tested on: NCI-H23 lung
OVCAR-5 ovarian = tested on: OVCAR-5 ovarian
SR leukemia = tested on: SR leukemia
EKVX NSCLC = tested on: EKVX NSCLC
SF-295 CNS = tested on: SF-295 CNS

SMILES	GI50 (SK-OV-3 ovarian)	TGI (SK-OV-3 ovarian)	GI50 (TK-10 renal)	TGI (TK-10 renal)	GI50 (NCI/ADR-RES ovarian)	TGI (NCI/ADR-RES ovarian)	GI50 (NCI-H226 lung)	TGI (NCI-H226 lung)	GI50 (HCC-2998 colon)	TGI (HCC-2998 colon)	GI50 (NCI-H23 lung)	TGI (NCI-H23 lung)	GI50 (OVCAR-5 ovarian)	TGI (OVCAR-5 ovarian)	GI50 (SR leukemia)	TGI (SR leukemia)	GI50 (EKVX NSCLC)	TGI (EKVX NSCLC)	GI50 (SF-295 CNS)	TGI (SF-295 CNS)
Cc1ccc2[nH]c3c(c2c1)N=c1ccccc1=NO3	29.9 µM	> 100 µM	38.2 µM	> 100 µM	22.7 µM	71.2 µM	70 µM	> 100 µM	81.7 µM	> 100 µM	75.9 µM	> 100 µM	> 100 µM	> 100 µM	33.4 µM	> 100 µM	26.2 µM	> 100 µM	23.8 µM	84.9 µM
COc1ccc(OC)c(NC(=O)c2cccc(NC3=C(Cl)C(=O)N(Cc4ccccc4)C3=O)c2)c1	> 100 µM	> 100 µM	> 59.5 µM	> 100 µM	> 67.8 µM	> 100 µM	> 67.3 µM	> 100 µM	70.4 µM	> 100 µM	> 70.8 µM	> 100 µM	> 73 µM	> 100 µM	7.8 µM	> 87.6 µM	2.49 µM	4.94 µM	> 75.3 µM	> 100 µM
CCCCCCCN(CCCCCCC)C(=N)c1ccnc2ccccc12	1.64 µM	3.14 µM	1.51 µM	2.97 µM	1.54 µM	2.96 µM	1.88 µM	3.78 µM	1.42 µM	2.77 µM	1.54 µM	3.08 µM	1.8 µM	3.6 µM	1.01 µM	2.96 µM	1.59 µM	3.15 µM	1.69 µM	3.45 µM
c1cc(CN2CCCNCCNCCCNCC2)ccc1CN1CCCNCCNCCCNCC1	> 100 µM	> 100 µM	> 100 µM	> 100 µM	> 100 µM	> 100 µM	> 100 µM	> 100 µM	> 100 µM	> 100 µM	> 100 µM	> 100 µM	> 100 µM	> 100 µM	> 100 µM	> 100 µM	> 100 µM	> 100 µM	> 100 µM	> 100 µM
COc1cc(OC)cc(-c2nc3sccn3c2/C=N/N=C(N)N)c1	7.28 µM	15.5 µM	6.29 µM	12.6 µM	26.4 µM	> 50 µM	6.96 µM	14.8 µM	7.55 µM	14.6 µM	7.9 µM	15.6 µM	7.25 µM	13.8 µM	8.64 µM	16.1 µM	8.2 µM	15.9 µM	8.94 µM	17.7 µM
